US11312722B2, “Hsp90 inhibitors and uses thereof” (TRUSTEES OF BOSTON UNIVERSITY, priority 2019, dated 2022)

Key:
[1] = molecular target: Hsp90 (C. albicans whole cell lysate) (Candida albicans (strain SC5314 / ATCC MYA-2876) (Yeast), UniProt P46598); experiment: biochemical; assay type: binding; details: for C. alb Active (biochemical): Yes/No call; for EC50: read-out: C. alb EC50
Method: (§1) All analogs were assessed for Hsp90 binding affinity using a fluorescence polarization (FP)-based equilibrium competition assay in fungal and human whole cell lysates. […] Using lysates, the relative potency and selectivity for fungal Hsp90 was measured versus the entire ensemble of human Hsp90 isoforms in microplate format using small amounts of test materials. […] Thermal shift assays were performed under saturating ligand conditions, i.e. equimolar concentrations (10 μM) of protein and ligand. As a result, they provided qualitative evidence of target binding, but not a quantitative measurement of ligand affinity. For quantitation, a ligand dissociation constant (Ki) for key compounds was also determined using purified NBDs in FP assays and KD measurements were made by surface plasmon resonance (SPR) using a Biacore instrument. Finally, all analogs were assessed for whole cell antifungal activity against the pathogens C. albicans and C. neoformans.
(§2) FP assays. Whole cell lysates were prepared for FP assays as described previously. Total protein concentration of human and yeast lysates was determined by Bradford assay. […] Serial dilutions of test Hsp90 inhibitors were then assayed under these same conditions to monitor loss of fluorescence polarization as an indicator of probe displacement from Hsp90. […] Titrations of test compound in 25 μL of binding buffer (supplemented with 0.1 mg/mL bovine gamma globulin), were mixed with an equal volume of freshly prepared whole-cell lysate spiked with Cy3-GdA (0.1 nM). Plates were incubated at room temperature for 4.5 h to achieve equilibrium binding for the geldanamycin-based probe. […] Non-linear 4-parameter curve fitting of raw displacement data was performed in GraphPad Prism 5.0 to determine EC50 values as a measure of relative Hsp90-binding affinity. Results were normalized to the value determined for GdA in lysate of each cell type.
(§3) Statistical methods. […] In calculating the error of selectivity determinations, the fractional error of measurements in each species was summed to yield a composite error for the derived ratio.

[2] = tested on: Hsp90 (C. albicans whole cell lysate); experiment: biochemical; assay type: binding; details: for C. alb Selective: Yes/No call
Method: as §1, §2, §3

[3] = tested on: C. neoformans (Strain H99); experiment: Antifungal sensitivity testing (MIC), C. neoformans H99; assay type: cell-based; details: for MIC80 / MIC90: Cryptococcus neoformans; for MIC80: read-out: C. neo MIC80; for MIC90: read-out: C. neo MIC90; for C. neo Active (cells): Yes/No call
Method: Color scale bar: no growth inhibition (green) to complete inhibition (black). Each shaded box represents the mean of technical duplicates. The experiment was repeated as an independent biological replicate to confirm results.
Minimum inhibitory concentration (MIC) value for compounds against C. neoformans (Strain H99) was determined in dose-response format, in technical duplicate. Experiments were conducted in RPMI medium at 37° C. for 48 h. Relative viable cell number was measured by standard dye reduction (resazurin) assay.
Yeast strains and culture conditions. Strains used in this study were C. albicans CaCi2 (clinical isolate 2), [58] SC5314, [59] and C. neoformans H99. […] Active cultures were maintained on solid (2% agar) yeast extract peptone (YPD, 1% yeast extract, 2% bactopeptone, 2% glucose) at 4° C. for no more than one month.
Antifungal sensitivity testing. […] Each compound was tested in duplicate in at least two independent experiments. […] Plates were photographed after 24 h of incubation at 30° C.

[4] = molecular target: Hsp90 (C. neoformans whole cell lysate) (Cryptococcus neoformans, UniProt J9VVA4); assay type: binding; details: for EC50: read-out: C. neo EC50; for C. neo Active (biochemical): Yes/No call
Method: as §1, §2, §3

[5] = tested on: Hsp90 (C. neoformans whole cell lysate); assay type: binding; details: for C. neo Selectivity (FS): C. neo FS calculated using EC50
Method: as §1, §2, §3

[6] = mouse liver microsomes
in vitro = details: both, CD-1, mouse, liver microsomes

Hsp90 (C. neoformans whole cell lysate) (Cryptococcus neoformans, UniProt J9VVA4), sequence (J9VVA4 1-699): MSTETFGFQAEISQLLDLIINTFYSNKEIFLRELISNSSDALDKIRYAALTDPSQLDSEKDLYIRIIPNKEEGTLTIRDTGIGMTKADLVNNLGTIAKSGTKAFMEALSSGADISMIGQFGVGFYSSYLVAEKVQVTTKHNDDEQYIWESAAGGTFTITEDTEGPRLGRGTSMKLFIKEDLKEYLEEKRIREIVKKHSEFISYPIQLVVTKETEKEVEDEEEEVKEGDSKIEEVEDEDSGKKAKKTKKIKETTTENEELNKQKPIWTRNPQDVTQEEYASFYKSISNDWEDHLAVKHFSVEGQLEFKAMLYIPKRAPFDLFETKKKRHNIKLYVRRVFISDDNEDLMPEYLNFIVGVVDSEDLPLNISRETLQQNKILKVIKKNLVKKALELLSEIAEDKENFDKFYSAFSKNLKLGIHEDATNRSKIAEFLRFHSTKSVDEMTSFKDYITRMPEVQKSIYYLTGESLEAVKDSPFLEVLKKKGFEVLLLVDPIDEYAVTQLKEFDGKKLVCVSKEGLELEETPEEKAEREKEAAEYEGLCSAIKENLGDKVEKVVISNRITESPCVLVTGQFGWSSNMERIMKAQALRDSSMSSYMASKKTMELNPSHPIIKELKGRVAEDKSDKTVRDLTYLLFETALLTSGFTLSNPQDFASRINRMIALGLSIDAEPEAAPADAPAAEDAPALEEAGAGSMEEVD

Compound	C. alb Active (biochemical) [1]	EC50 [1]	C. alb Selectivity (FS) [2]	C. alb Selective [2]	C. neo MIC80 [3]	C. neo MIC90 [3]	EC50 [4]	C. neo Selectivity (FS) [5]	MIC80 [3]	MIC90 [3]	C. neo Active (cells) [3]	C. neo Active (biochemical) [4]	C. neo selective ([5]; Yes/No call)	% remaining at 15 min (NADPH-free) ([6]; NADPH-free control)	% remaining at 15 min ([6]; with NADPH)	% remaining at 60 min ([6]; with NADPH)	CLint scaled at 1 μM (in vitro)	half-life at 1 μM (in vitro)
Cc1cccc(-c2cc(Nc3cc(O)cc(O)c3C(=O)N3Cc4ccc(N5CCN(C)CC5)cc4C3)n(C)n2)c1 [ACSM01279]	Yes	2150 nM	3.7	No	>25 µM	>25 µM	449 nM	18.3	–	–	–	–	–	–	–	–	–	–
Cc1cccc(-c2cc(Nc3cc(O)cc(O)c3C(=O)N3Cc4ccc(N5CCOCC5)cc4C3)n(C)n2)c1 [ACSM01280]	No	> 10000 nM	–	No	>25 µM	>25 µM	2000 nM	6	–	–	–	–	–	–	–	–	–	–
Cn1nccc1Nc1cc(O)cc(O)c1C(=O)N1CC2CC2C1 (centres unmarked) [ACSM01301]	No	> 10000 nM	–	No	>25 µM	>25 µM	2400 nM	5	–	–	–	–	–	–	–	–	–	–
O=C(c1c(O)cc(O)cc1Nc1cc(-c2ccccc2)nn1-c1ccccc1)N1Cc2ccccc2C1 [ACSM01305]	Yes	1890 nM	0.9	No	6.25 µM	3 µM	577 nM	8.1	–	–	–	–	–	–	–	–	–	–
COc1cccc(-c2cc(Nc3cc(O)cc(O)c3C(=O)N3Cc4ccc(N5CCN(C)CC5)cc4C3)n(C)n2)c1 [ACSM01375]	No	> 10000 nM	–	No	>25 µM	>25 µM	1240 nM	9.6	–	–	–	–	–	–	–	–	–	–
O=C(O)Cn1nc(-c2ccccc2)cc1Nc1cc(O)cc(O)c1C(=O)N1Cc2ccccc2C1 [ACSM01476]	Yes	2120 nM	1.4	No	>25 µM	>25 µM	537 nM	5.8	–	–	–	–	–	–	–	–	–	–
Cc1cccc(-n2nc(C)c(Nc3cc(O)cc(O)c3C(=O)N3Cc4ccccc4C3)c2C)c1 [ACSM01486, (2-((3,5-Dimethyl-1-(m-tolyl)-1H-pyrazol-4-yl)amino)-4,6-dihydroxyphenyl)(isoindolin-2-yl)methanone]	Yes	2060 nM	0.7	No	–	–	34 nM	43.4	> 25 µM	> 25 µM	–	–	–	–	–	–	–	–
CN1CCN(c2ccc3c(c2)CN(C(=O)c2c(O)cc(O)cc2Nc2cc(-c4cccc(C(F)(F)F)c4)nn2C)C3)CC1 [ACSM01487]	Yes	1160 nM	2.3	No	>25 µM	>25 µM	55 nM	50.1	–	–	–	–	–	–	–	–	–	–
Cn1nc(-c2ccccc2C(F)(F)F)cc1Nc1cc(O)cc(O)c1C(=O)N1Cc2ccncc2C1 [ACSM01491]	Yes	724 nM	3.9	No	>25 µM	>25 µM	47 nM	62.2	–	–	–	–	–	–	–	–	–	–
COc1cccc(-c2cc(Nc3cc(O)cc(O)c3C(=O)N3Cc4ccncc4C3)n(C)n2)c1 [ACSM01492]	Yes	10600 nM	1.1	No	>25 µM	>25 µM	258 nM	46.2	–	–	–	–	–	–	–	–	–	–
COc1ccccc1-n1nc(C)c(Nc2cc(O)cc(O)c2C(=O)N2Cc3ccccc3C2)c1C [ACSM01493, (2,4-Dihydroxy-6-((1-(2-methoxyphenyl)-3,5-dimethyl-1H-pyrazol-4-yl)amino)phenyl)(isoindolin-2-yl)methanone]	Yes	1060 nM	1.2	No	–	–	191 nM	7.2	> 25 µM	> 25 µM	–	–	–	–	–	–	–	–
Cc1nn(-c2cccc(C(F)(F)F)c2)c(C)c1Nc1cc(O)cc(O)c1C(=O)N1Cc2ccccc2C1 [ACSM01494, (2-((3,5-Dimethyl-1-(3-(trifluoromethyl)phenyl)-1H-pyrazol-4-yl)amino)-4,6-dihydroxyphenyl)(isoindolin-2-yl)methanone]	Yes	1590 nM	1.8	No	–	–	30 nM	97.7	> 25 µM	> 25 µM	–	–	–	–	–	–	–	–
COc1ccc(Cn2nc(-c3ccccc3)cc2Nc2cc(O)cc(O)c2C(=O)N2Cc3ccncc3C2)cc1 [BUCMD00433]	Yes	11 nM	31	Yes	>25 µM	>25 µM	75 nM	13	–	–	No	Yes	Yes	–	–	–	–	–
COc1ccc(Cn2nc(-c3ccccc3)cc2Nc2cc(O)cc(O)c2C(=O)N2Cc3cccnc3C2)cc1 [Compound 23, 5-((1-((4-Methoxyphenyl)methyl)-3-phenyl-1H-pyrazol-5-yl)amino)-4-(5H,6H,7H-pyrrolo[3,4-b]pyridine-6-carbonyl)benzene-1,3-diol]	–	–	–	–	–	–	–	–	> 25 µM	> 25 µM	No	Yes	–	–	–	–	–	–
Cn1nc(C2CCCCC2)cc1Nc1cc(O)cc(O)c1C(=O)N1Cc2cn[nH]c2C1 [Compound 105, 5-((3-Cyclohexyl-1-methyl-1H-pyrazol-5-yl)amino)-4-(1H,4H,5H,6H-pyrrolo[3,4-c]pyrazole-5-carbonyl)benzene-1,3-diol]	–	–	–	–	–	–	–	–	–	–	–	–	–	103.6%	2.3%	0%	1990 mL/min/kg	2.7 min
Cc1ccc(-c2cc(Nc3cc(O)cc(O)c3C(=O)N3Cc4cccnc4C3)n(C)n2)cc1 [Compound 119, 5-((1-Methyl-3-(4-methylphenyl)-1H-pyrazol-5-yl)amino)-4-(5H,6H,7H-pyrrolo[3,4-b]pyridine-6-carbonyl)benzene-1,3-diol]	Yes	–	–	–	–	–	–	–	> 25 µM	> 25 µM	–	–	–	–	–	–	–	–
Cc1ccc(-c2cc(Nc3cc(O)cc(O)c3C(=O)N3Cc4cn[nH]c4C3)n(C)n2)cc1 [Compound 120, 5-((1-Methyl-3-(4-methylphenyl)-1H-pyrazol-5-yl)amino)-4-(1H,4H,5H,6H-pyrrolo[3,4-c]pyrazole-5-carbonyl)benzene-1,3-diol]	Yes	–	–	–	–	–	–	–	> 25 µM	> 25 µM	–	–	–	–	–	–	–	–
COc1ccc(-c2cc(Nc3cc(O)cc(O)c3C(=O)N3Cc4cccnc4C3)n(C)n2)cc1 [Compound 122, 5-((3-(4-Methoxyphenyl)-1-methyl-1H-pyrazol-5-yl)amino)-4-(5H,6H,7H-pyrrolo[3,4-b]pyridine-6-carbonyl)benzene-1,3-diol]	Yes	–	–	–	–	–	–	–	> 25 µM	> 25 µM	–	–	–	–	–	–	–	–
COc1ccc(-c2cc(Nc3cc(O)cc(O)c3C(=O)N3Cc4cn[nH]c4C3)n(C)n2)cc1 [Compound 123, 5-((3-(4-Methoxyphenyl)-1-methyl-1H-pyrazol-5-yl)amino)-4-(1H,4H,5H,6H-pyrrolo[3,4-c]pyrazole-5-carbonyl)benzene-1,3-diol]	Yes	–	–	–	–	–	–	–	> 25 µM	> 25 µM	–	–	–	–	–	–	–	–
